According to ChEMBL document CHEMBL4316588, “Design, Synthesis, and Biological Evaluation of Novel DNA Gyrase-Inhibiting Spiropyrimidinetriones as Potent Antibiotics for Treatment of Infections Caused by Multidrug-Resistant Gram-Positive Bacteria” (J Med Chem, 2019):
≈ marks a conversion by molar mass, not a printed value. Calls of active or inactive are those of the source. No cut-off for these calls is given here.

Columns and labels:
Type in all cases: functional
[1] = tested on: Staphylococcus epidermidis; assay: Antibacterial activity against methicillin-sensitive Staphylococcus epidermidis after 18 to 20 hrs by CLSI-protocol based broth microdilution method
[2] = tested on: Staphylococcus epidermidis; assay: Antibacterial activity against methicillin-resistant Staphylococcus epidermidis after 18 to 20 hrs by CLSI-protocol based broth microdilution method
[3] = tested on: Streptococcus pyogenes; assay: Antibacterial activity against Streptococcus pyogenes after 18 to 20 hrs by CLSI-protocol based broth microdilution method
[4] = tested on: Streptococcus pneumoniae; assay: Antibacterial activity against penicillin-resistant Streptococcus pneumoniae after 18 to 20 hrs by CLSI-protocol based broth microdilution method
[5] = tested on: Staphylococcus aureus; assay: Antibacterial activity against methicillin-sensitive Staphylococcus aureus after 18 to 20 hrs by CLSI-protocol based broth microdilution method
[6] = tested on: Staphylococcus aureus; assay: Antibacterial activity against methicillin-resistant Staphylococcus aureus after 18 to 20 hrs by CLSI-protocol based broth microdilution method
[7] = Streptococcus pyogenes, read-out: MIC
[8] = Staphylococcus aureus, read-out: MIC

SMILES | MIC [1] | MIC [2] | MIC [3, 7] [µg/mL] | MIC [4] | MIC [5, 8] [µg/mL] | MIC [6] | MIC [3] | MIC [5]
C[C@@H]1CN(c2noc3c(C#N)c4c(cc23)CC2(C(=O)NC(=O)NC2=O)[C@H]2[C@H](C)O[C@H](C)CN42)C(=O)O1 | 1 to 2 µg/mL (≈ 2.02 to 4.04 µM) | 2 µg/mL (≈ 4.04 µM) | 4 to 8 (≈ 8.09 to 16.2 µM) | 4 to 8 µg/mL (≈ 8.09 to 16.2 µM) | 2 to 8 (≈ 4.04 to 16.2 µM) | 0.25 to 8 µg/mL (≈ 0.506 to 16.2 µM) | – | –
C[C@@H]1CN2c3c(cc4c(N5C[C@H](COC(F)(F)F)SC5=O)noc4c3F)CC3(C(=O)NC(=O)NC3=O)[C@H]2[C@H](C)O1 | – | – | 0.125 to 0.25 (≈ 0.213 to 0.426 µM) | 0.125 to 0.5 µg/mL (≈ 0.213 to 0.851 µM) | 0.06 to 1 (≈ 0.102 to 1.7 µM) | – | – | –
CC[C@H]1CSC(=O)N1c1noc2c(F)c3c(cc12)CC1(C(=O)NC(=O)NC1=O)[C@H]1[C@H](C)O[C@H](C)CN31 | 0.5 to 1 µg/mL (≈ 0.966 to 1.93 µM) | 0.25 to 0.5 µg/mL (≈ 0.483 to 0.966 µM) | 0.5 to 1 (≈ 0.966 to 1.93 µM) | 0.5 to 1 µg/mL (≈ 0.966 to 1.93 µM) | 0.25 to 0.5 (≈ 0.483 to 0.966 µM) | 0.5 to 1 µg/mL (≈ 0.966 to 1.93 µM) | – | –
C[C@@H]1CN2c3c(cc4c(N5C[C@H](CO)SC5=O)noc4c3F)CC3(C(=O)NC(=O)NC3=O)[C@H]2[C@H](C)O1 | 0.06 to 0.25 µg/mL (≈ 0.115 to 0.481 µM) | 0.03 to 0.125 µg/mL (≈ 0.0577 to 0.241 µM) | 0.125 to 0.5 (≈ 0.241 to 0.962 µM) | 0.125 to 0.25 µg/mL (≈ 0.241 to 0.481 µM) | 1 (≈ 1.92 µM) | 0.5 to 4 µg/mL (≈ 0.962 to 7.7 µM) | – | –
C[C@H]1COc2c(N3CCN(C)CC3)c(F)cc3c(=O)c(C(=O)O)cn1c23.C[C@H]1COc2c(N3CCN(C)CC3)c(F)cc3c(=O)c(C(=O)O)cn1c23.O [LEVOFLOXACIN] | 0.5 to 4 µg/mL | 4 to 64 µg/mL | 0.5 to 1 | – | 4 to 64 | 16 to 64 µg/mL | – | –
C[C@@H]1CN2c3c(cc4c(N5C[C@H](CF)SC5=O)noc4c3F)CC3(C(=O)NC(=O)NC3=O)[C@H]2[C@H](C)O1 | < 0.03 µg/mL | – | – | 0.06 to 0.25 µg/mL (≈ 0.115 to 0.479 µM) | 0.06 to 0.125 (≈ 0.115 to 0.24 µM) | – | – | –
C[C@@H]1CN2c3c(cc4c(N5C[C@H](C)SC5=O)noc4c3C#N)CC3(C(=O)NC(=O)NC3=O)[C@H]2[C@H](C)O1 | 0.06 to 0.125 µg/mL (≈ 0.118 to 0.245 µM) | 0.06 to 0.5 µg/mL (≈ 0.118 to 0.979 µM) | 0.125 to 0.5 (≈ 0.245 to 0.979 µM) | 0.125 to 0.25 µg/mL (≈ 0.245 to 0.49 µM) | 0.06 to 1 (≈ 0.118 to 1.96 µM) | – | – | –
C[C@@H]1CN2c3c(cc4c(N5C(=O)OCC5(C)C)noc4c3F)CC3(C(=O)NC(=O)NC3=O)[C@H]2[C@H](C)O1 (racemic) | 16 µg/mL (≈ 31.9 µM) | 16 µg/mL (≈ 31.9 µM) | 16 (≈ 31.9 µM) | 16 µg/mL (≈ 31.9 µM) | 16 (≈ 31.9 µM) | 16 µg/mL (≈ 31.9 µM) | – | –
C[C@@H]1CN2c3c(cc4c(N5C(=O)SCC56CC6)noc4c3F)CC3(C(=O)NC(=O)NC3=O)[C@H]2[C@H](C)O1 | 1 to 4 µg/mL (≈ 1.94 to 7.76 µM) | 2 to 4 µg/mL (≈ 3.88 to 7.76 µM) | 4 (≈ 7.76 µM) | 1 to 2 µg/mL (≈ 1.94 to 3.88 µM) | 2 to 4 (≈ 3.88 to 7.76 µM) | 0.5 to 8 µg/mL (≈ 0.97 to 15.5 µM) | – | –
Cc1ncnc2c(F)c3c(cc12)CC1(C(=O)NC(=O)NC1=O)[C@H]1[C@H](C)O[C@H](C)CN31 (racemic) | inactive | inactive | – | inactive | – | inactive | inactive | inactive
C[C@@H]1CN2c3c(cc4c(N5C(=O)SC[C@H]5C)noc4c3F)CC3(C(=O)NC(=O)NC3=O)[C@H]2[C@H](C)O1 | 0.03 to 0.125 µg/mL (≈ 0.0596 to 0.248 µM) | 0.03 to 0.125 µg/mL (≈ 0.0596 to 0.248 µM) | 0.125 to 0.25 (≈ 0.248 to 0.497 µM) | 0.25 to 1 µg/mL (≈ 0.497 to 1.99 µM) | 0.25 to 0.5 (≈ 0.497 to 0.993 µM) | 0.03 to 0.5 µg/mL (≈ 0.0596 to 0.993 µM) | – | –
CC[C@@H]1CSC(=O)N1c1noc2c(F)c3c(cc12)CC1(C(=O)NC(=O)NC1=O)[C@H]1[C@H](C)O[C@H](C)CN31 | 1 µg/mL (≈ 1.93 µM) | 0.25 to 2 µg/mL (≈ 0.483 to 3.86 µM) | 4 (≈ 7.73 µM) | 2 µg/mL (≈ 3.86 µM) | 0.5 to 1 (≈ 0.966 to 1.93 µM) | 0.5 to 2 µg/mL (≈ 0.966 to 3.86 µM) | – | –
C[C@@H]1CN2c3c(cc4c(N5CC6(COC6)OC5=O)noc4c3F)CC3(C(=O)NC(=O)NC3=O)[C@H]2[C@H](C)O1 | 0.03 to 0.125 µg/mL (≈ 0.0582 to 0.243 µM) | 0.03 to 0.25 µg/mL (≈ 0.0582 to 0.485 µM) | 0.125 to 0.25 (≈ 0.243 to 0.485 µM) | 0.125 to 0.5 µg/mL (≈ 0.243 to 0.97 µM) | 0.125 to 0.25 (≈ 0.243 to 0.485 µM) | 0.03 to 1 µg/mL (≈ 0.0582 to 1.94 µM) | – | –
C[C@@H]1CN2c3c(cc4c(N5C(=O)S[C@@H]6CCC[C@@H]65)noc4c3F)CC3(C(=O)NC(=O)NC3=O)[C@H]2[C@H](C)O1 | < 0.03 µg/mL | – | < 0.03 | < 0.03 µg/mL | – | – | – | –
C[C@@H]1CN2c3c(cc4c(N5CCOC5=O)ncnc4c3F)CC3(C(=O)NC(=O)NC3=O)[C@H]2[C@H](C)O1 (relative stereo) | inactive | inactive | – | inactive | – | inactive | inactive | inactive
C[C@@H]1CN2c3c(cc4c(N5CC6(CC6)OC5=O)noc4c3C#N)CC3(C(=O)NC(=O)NC3=O)[C@H]2[C@H](C)O1 | 0.25 to 2 µg/mL (≈ 0.494 to 3.95 µM) | 0.5 to 2 µg/mL (≈ 0.987 to 3.95 µM) | 4 (≈ 7.9 µM) | 1 to 2 µg/mL (≈ 1.97 to 3.95 µM) | 1 to 4 (≈ 1.97 to 7.9 µM) | 0.03 to 8 µg/mL (≈ 0.0592 to 15.8 µM) | – | –
C[C@@H]1CN2c3c(cc4c(-n5cncn5)ncnc4c3F)CC3(C(=O)NC(=O)NC3=O)[C@H]2[C@H](C)O1 (racemic) | inactive | inactive | – | inactive | – | inactive | inactive | inactive
